Laboratory results reported in paper PMC12036814 (Angewandte Chemie (International Ed. in English), 2025).
Where two headings read alike, the source gives them in different places.

Columns and labels:
NUDT1 = NUDT1 (Homo sapiens, UniProt P36639); experiment: Gel-based AfBPP labelling of recombinant NUDT1 spiked into human lysate; format: binding; design: Full length NUDT1 gene synthesis; N-terminal His tag with thrombin site from pET28a(+) (NdeI/XhoI) (N, cleaved yes); made in house; host or cells: E. coli BL21 (DE3); settings: parent compound added before probe
HEK‐293 cells = experiment: Whole proteome analysis (LC-MS/MS, LFQ) of treated HEK-293 cells; design: regulation of ETC complex I and IV subunits: dose or concentration left out as unconfirmed; settings: […] μM, 3 h to 14 days, versus control
PDL-hTERT cells = experiment: Live/dead staining and microscopy (morphology); format: cell-based; design: dose or concentration left out as unconfirmed; settings: […] µM, 7 days
Experimental: For PDL-hTERT cells (9 x 10^4 cells /well) were plated in each well of 6 -well plates (Greiner Bio-One,
Frickenhausen, Germany) and incubated for 3 days at 37 °C and 5% CO2. Afterwards, cells were treated
Afterwards, the cells were stained with 1 µM calcein
acetoxymethyl (calcein AM) and 10 µM propidium iodide, diluted from 100 µM and 1 mM stock
solutions respectively. The diluent was given to the cells in a mixture of 1:1 PBS to culture medium.
Calcein AM is cell permeable and in living cells is converted to fluorescent calcein by intracellular
estarases, thus labelling the cells in green colour. Propidium iodide is a fluorescent dye that can only
traverse cells with damaged membranes, thus marking dead cells in red colour (to note: dead cells
frequently detach during the staining procedure). Last, cells were imaged on day 1, 4, and 7 in phase -
contrast, FITC (green) and Cy3 (red) fluorescent channels using Zeiss AxioVert.A1 microscope equipped
with AxioCam ICc1 camera (Carl Zeiss, Göttingen, Germany). Each image was automatically processed
using the “Min/Max” option provided by the micriscope software Zen 2.3 lite (Carl Zeiss). The
experiment was repeated three independent times (n = 3), each performed in duplicate wells for
control and Cipro-containing groups.

TRIM26 = molecular target: T1, TRIM26 (Homo sapiens, UniProt Q12899); experiment: Thermal protein profiling (TPP) in intact HEK293 cells; format: cell-based; settings: 1 h
T1 construct: endogenous in cells; host or cells: HEK293
T1 sequence (Q12899 1-539): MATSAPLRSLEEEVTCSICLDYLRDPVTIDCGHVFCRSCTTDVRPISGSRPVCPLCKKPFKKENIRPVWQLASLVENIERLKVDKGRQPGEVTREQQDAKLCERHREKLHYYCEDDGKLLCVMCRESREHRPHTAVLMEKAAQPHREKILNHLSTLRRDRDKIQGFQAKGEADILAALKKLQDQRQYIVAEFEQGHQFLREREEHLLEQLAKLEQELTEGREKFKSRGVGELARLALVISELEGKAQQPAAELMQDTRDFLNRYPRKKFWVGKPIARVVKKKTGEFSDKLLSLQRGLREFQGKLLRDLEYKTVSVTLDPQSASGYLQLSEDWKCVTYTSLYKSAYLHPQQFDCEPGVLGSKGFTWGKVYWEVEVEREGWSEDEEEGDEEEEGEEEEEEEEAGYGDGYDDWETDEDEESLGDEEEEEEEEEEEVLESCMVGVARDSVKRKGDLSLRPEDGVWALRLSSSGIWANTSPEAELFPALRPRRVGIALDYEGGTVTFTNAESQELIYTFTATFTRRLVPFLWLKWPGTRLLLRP
Experimental: (§1) incubated in a thermoshaker (600 rpm, 16 h, 37 °C). The digest was stopped by adding 10 μL formic
(§2) acid (FA) and vortexing followed by centrifugation (12,000 ×g, 3 min, room temperature). 50 mg
(§3) SepPak C18 columns (Waters, Milford, USA, Cat# WAT054960) were equilibrated by gravity flow two
(§4) times with 1 mL acetonitrile and three times with 1 mL aqueous 0.1% trifluoroacetic acid (TFA) solution.
(§5) Subsequently, the samples were loaded by gravity flow, washed three times with 1 mL aqueous 0.1%
(§6) TFA solution and once with 0.5 mL aqueous 0.5% formic acid (F A) solution. Elution of peptides into
(§7) new 2.0 mL Protein LoBind Eppendorf tubes was performed by two times addition of 250 μL elution
(§8) buffer (80% acetonitrile, 0.5% FA) by gravity flow followed by 250 μL elution buffer by vacuum flow
(§9) until all liquid was eluted from the column. The eluates were lyophilized. Before MS measurement the
(§10) (brief centrifugation after each step).
(§11) Thermal protein profiling (TPP)
(§12) The experiment was performed similarly to TPP-TR experiments described by Franken et al. with minor
(§13) modifications.5 HEK293 cells were grown in 8 T175 flasks to approx. 80-90% confluency. Per replicate
(§14) volume of 0.1 N HCl as vehicle control. Per condition two replicates were used, leading to a total of 8
(§15) T175 flasks. The cells were washed with PBS, detached with accutase, the two flask per replicate
(§16) condition combined and the cells pelletized (500 ×g, 3 min, r.t.). The medium was removed and each
(§17) pellet (Cipro #1, Cipro #2, Ctrl. #1, Ctrl #2) washed twice with cold PBS. Each pellet was resuspended
(§18) depending on the sample. The cell suspension of each sample was distributed into 10 PCR tubes
(§19) (100 µL per tube), resulting in 10 stripes á 4 tubes (2×2 conditions, 10 temperature points). The PCR
(§20) tubes were subjected to the temperature gradient using a PCR cycler.
(§21) limitations, two separate programs had to be run to cover the desired temperature range (see
(§22) Table S4). The PCR tubes were heat-treated according to the two programs for 3 min and directly snap
(§23) frozen in liquid nitrogen.
(§24) manufacturer instructions.

RAP1A = molecular target: T2, RAP1A (Homo sapiens, UniProt P62834); experiment: as above; format: cell-based; settings: 1 h
T2 construct: endogenous in cells; host or cells: HEK293
T2 sequence (P62834 1-184): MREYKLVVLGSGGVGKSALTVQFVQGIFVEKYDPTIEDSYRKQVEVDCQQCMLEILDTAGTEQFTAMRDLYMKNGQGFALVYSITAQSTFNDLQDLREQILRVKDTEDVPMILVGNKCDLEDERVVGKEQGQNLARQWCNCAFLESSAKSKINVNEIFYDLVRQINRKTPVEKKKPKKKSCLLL
Experimental: as §1, §2, §3, §4, §5, §6, §7, §8, §9, §10, §11, §12, §13, §14, §15, §16, §17, §18, §19, §20, §21, §22, §23, §24

With `O=C(O)c1cn(C2CC2)c2cc(N3CCNCC3)c(F)cc2c1=O` [Ciprofloxacin] the “competition of Cipro P2 / Levo P2 labeling of recombinant NUDT1” value (NUDT1) was “competed”, the “regulation of ETC complex I and IV subunits” value (HEK‐293 cells) was “pronounced and time‐dependent down‐regulation of both complexes” and the cell morphology (PDL-hTERT cells) was “cell rounding”. The ΔTm at 70 µM (TRIM26; read-out: ΔTm Rep. 1) was 3.54 °C, the ΔTm at 70 µM (TRIM26; read-out: ΔTm Rep. 2) was 3.88 °C and the ΔTm at 70 µM (RAP1A; read-out: ΔTm Rep. 1) was 1.79 °C. The ΔTm at 70 µM (RAP1A; read-out: ΔTm Rep. 2) was 2.89 °C.
